Results reported in ChEMBL document CHEMBL5518227, “Discovery of JNJ-1802, a First-in-Class Pan-Serotype Dengue Virus NS4B Inhibitor” (J Med Chem, 2024).
Converted amounts (≈) assume the structure as drawn. “And” between values parts separate entries of the source, which are not always exact repeats. Equal values may be shown once.

What was measured:
dengue virus type 1 = experiment: Antiviral activity against DENV-1 TC974#666 infected in african green monkey Vero cells incubated for 24 hrs measured after 3 days post infection by RT-PCR analysis; type: functional, organism-based
dengue virus type 3 = experiment: Antiviral activity against DENV-3 H87 infected in african green monkey Vero cells incubated for 24 hrs measured after 3 days post infection by RT-PCR analysis; type: functional, organism-based
dengue virus type 2 = experiment: Antiviral activity against DENV-2 16681 expressing eGFP infected in african green monkey Vero cells incubated with cells for 24 hrs followed by viral infection measured after 3 days by laser microscopic analysis; type: functional, organism-based; conditions: Dengue virus, 16681, Vero
[1] = Metabolic stability in human liver microsomes assessed as intrinsic clearance preincubated for 5 mins followed by NADPH addition measured upto 60 mins by LC-MS/MS analysis; type: ADME, Microsome; conditions: time < 65 min, read-out: CLH
[2] = Chromatographic hydrophobicity index, log D of the compound at pH 7.4 by LC/MS analysis; type: physicochemical; conditions: buffer
[3] = Metabolic stability in human hepatocytes assessed as intrinsic clearance measured per million cells incubated upto 120 mins by LC-MS/MS analysis; type: ADME, cell-based, Hepatocyte; conditions: read-out: CLH
dengue virus type 4 = experiment: Antiviral activity against DENV-4 H241 infected in african green monkey Vero cells incubated for 24 hrs measured after 3 days post infection by RT-PCR analysis; type: functional, organism-based
[4] = Metabolic stability in rat liver microsomes assessed as intrinsic clearance preincubated for 5 mins followed by NADPH addition measured upto 60 mins by LC-MS/MS analysis; type: ADME, Microsome; conditions: time < 65 min, read-out: CLH
[5] = Metabolic stability in rat hepatocytes assessed as intrinsic clearance measured per million cells incubated upto 120 mins by LC-MS/MS analysis; type: ADME, cell-based, Hepatocyte; conditions: read-out: CLH
[6] = Volume of distribution at steady state in Sprague-Dawley rat at 2.5 mg/kg, iv measured after 24 hrs by LC-MS/MS analysis; type: ADME, organism-based; conditions: in vivo, read-out: Vdss
[7] = Elimination half life in Sprague-Dawley rat at 2.5 mg/kg, iv measured after 24 hrs by LC-MS/MS analysis; type: ADME, organism-based; conditions: in vivo, read-out: beta t1/2 (converted)
[8] = AUC in Sprague-Dawley rat at 10 mg/kg, po measured after 24 to 48 hrs by LC-MS/MS analysis; type: ADME, organism-based; conditions: in vivo, time 24-48 hrs
[9] = Oral bioavailability in Sprague-Dawley rat at 10 mg/kg measured after 24 to 48 hrs by LC-MS/MS analysis; type: ADME, organism-based; conditions: in vivo, time 24-48 hrs
[10] = Cmax in Sprague-Dawley rat at 10 mg/kg, po measured after 24 to 48 hrs by LC-MS/MS analysis; type: ADME, organism-based; conditions: in vivo, time 24-48 hrs
[11] = Thermodynamic solubility of the compound in aqueous buffer at pH 7.4 measured after 24 hrs by UPLC analysis; type: physicochemical; conditions: read-out: Therm_solubility
[12] = Clearance in Sprague-Dawley rat at 2.5 mg/kg, iv measured after 24 hrs by LC-MS/MS analysis; type: ADME, organism-based; conditions: in vivo
[13] = Clearance in Sprague-Dawley rat assessed as liver blood flow at 2.5 mg/kg, iv measured after 24 hrs by LC-MS/MS analysis; type: ADME, organism-based; conditions: in vivo
[14] = Thermodynamic solubility of the compound in PEG400 measured after 24 hrs by UPLC analysis; type: physicochemical
[15] = Metabolic stability in mouse liver microsomes assessed as intrinsic clearance preincubated for 5 mins followed by NADPH addition measured upto 60 mins by LC-MS/MS analysis; type: ADME, Microsome; conditions: time < 65 min, read-out: CLH
[16] = Dengue virus, TC974#666, Vero, read-out: EC50
[17] = Dengue virus, H87, Vero, read-out: EC50

`COc1cc(NC(C(=O)c2c[nH]c3cc(OC)c(OC(F)(F)F)cc23)c2ccc(Cl)cc2OC)cc(S(C)(=O)=O)c1` (single isomer, unassigned; (+)) gave an EC50 (dengue virus type 1; [16]) of 0.3 nM, an EC50 (dengue virus type 3; [17]) of 4 nM and an EC50 (dengue virus type 2) of 0.057 nM. The microsomal CLint [1] was < 8 µL/min/mg, the “Chromatographic log D at pH 7.4” value [2] was 3.82 and the hepatocyte CLint [3] was < 1.2 µL/min/1e6 cells. It also gave an EC50 (dengue virus type 4) of 11 nM.
With `COc1cc(NC(C(=O)c2c[nH]c3ccccc23)c2ccc(F)cc2)cc(S(=O)(=O)CCCO)c1` (configuration not stated) the EC50 (dengue virus type 1; vero) was “Not Active”, the microsomal CLint [4] was 66 µL/min/mg and the EC50 (dengue virus type 3; vero) was “Not Active”. For the same molecule, the EC50 (dengue virus type 2) was 230 nM, the microsomal CLint [1] was 35 µL/min/mg and the EC50 (dengue virus type 4) was 14000 nM.
With `COc1cc(NC(C(=O)c2c[nH]c3cc(OC)c(C)cc23)c2ccc(F)cc2OCCO)cc(S(C)(=O)=O)c1` (single isomer, unassigned; (+)) the hepatocyte CLint [5] was 11 µL/min/1e6 cells, the Vd [6] was 9.6 L/kg and the half-life [7] was 4.2 h. The EC50 (dengue virus type 1; [16]) was 3 nM, the AUC [8] was 1010 ng·h/mL and the EC50 (dengue virus type 3; [17]) was 43 nM. The EC50 (dengue virus type 2) was 0.84 nM, the bioavailability [9] was 18% and the “Chromatographic log D at pH 7.4” value [2] was 2.98. For the same molecule, the Cmax [10] was 94 ng/mL, the solubility thermodynamic at 24 h [11] was < 1 µg/mL and the hepatocyte CLint [3] was < 1.9 µL/min/1e6 cells. It also gave a clearance [12] of 30 mL/min/kg, an LBF [13] of 42% and an EC50 (dengue virus type 4) of 110 nM.
With `COc1cc(NC(C(=O)c2c[nH]c3cc(F)ccc23)c2ccc(F)cc2OC)cc(S(C)(=O)=O)c1` (configuration not stated) the hepatocyte CLint [5] was 8.5 µL/min/1e6 cells, the Vd [6] was 7.2 L/kg and the half-life [7] was 5.3 h. It also gave an EC50 (dengue virus type 1; [16]) of 8 nM, an AUC [8] of 5210 ng·h/mL and an EC50 (dengue virus type 3; [17]) of 50 nM. The bioavailability [9] was 49%, the “Chromatographic log D at pH 7.4” value [2] was 3.23 and the Cmax [10] was 418 ng/mL. For the same molecule, the solubility thermodynamic at 24 h [11] was 2 µg/mL (≈ 4 µM), the hepatocyte CLint [3] was < 1.9 µL/min/1e6 cells and the clearance [12] was 16 mL/min/kg. For the same molecule, the LBF [13] was 23%, the EC50 (dengue virus type 4) was 170 nM and the Therm_solubility [14] was 41000 µg/mL.
For `COc1cc(NC(C(=O)c2c[nH]c3cc(F)ccc23)c2ccc(Cl)cc2OC)cc(S(C)(=O)=O)c1` (single isomer, unassigned; (+)), the EC50 (dengue virus type 1; vero, read-out: EC50) was 20 nM and 2 nM, the microsomal CLint [1] was < 8 µL/min/mg and the “Chromatographic log D at pH 7.4” value [2] was 3.46.
Molecule `COc1cc(NC(C(=O)c2c[nH]c3cc(OC)c(C)cc23)c2ccc(Cl)cc2OC)cc(S(C)(=O)=O)c1` (configuration not stated) has a hepatocyte CLint [5] of 7.2 µL/min/1e6 cells, a Vd [6] of 8.8 L/kg and a half-life [7] of 4.4 h. It also gave an EC50 (dengue virus type 1; [16]) of 0.97 nM, an EC50 (dengue virus type 1; vero, read-out: EC50) of 0.9 nM and an AUC [8] of 5140 ng·h/mL. The bioavailability [9] was 74%, the microsomal CLint [1] was < 8 µL/min/mg and the Cmax [10] was 371 ng/mL. The solubility thermodynamic at 24 h [11] was 1 µg/mL (≈ 1.84 µM), the clearance [12] was 23 mL/min/kg and the LBF [13] was 33%. For the same molecule, the Therm_solubility [14] was > 169000 µg/mL.
`COc1cc(NC(C(=O)c2c[nH]c3cc(OC)ccc23)c2ccc(Cl)cc2OC)cc(S(C)(=O)=O)c1` (single isomer, unassigned; (+)) gave an EC50 (dengue virus type 1; [16]) of 4 nM, an EC50 (dengue virus type 3; [17]) of 48 nM and an EC50 (dengue virus type 2) of 0.3 nM. The microsomal CLint [1] was < 8 µL/min/mg, the “Chromatographic log D at pH 7.4” value [2] was 3.23 and the hepatocyte CLint [3] was 10 µL/min/1e6 cells. It also gave an EC50 (dengue virus type 4) of 110 nM.
`COc1cc(NC(C(=O)c2c[nH]c3ccccc23)c2ccc(F)cc2)cc(OCCO)c1` (configuration not stated) showed an EC50 (dengue virus type 1; [16]) of 86 nM, a microsomal CLint [4] of 24 µL/min/mg and an EC50 (dengue virus type 3; [17]) of 950 nM. For the same molecule, the EC50 (dengue virus type 2) was 14 nM, the microsomal CLint [1] was < 8 µL/min/mg and the EC50 (dengue virus type 4) was 2600 nM. It also gave a microsomal CLint [15] of 94 µL/min/mg.
In the case of `COc1cc(NC(C(=O)c2c[nH]c3ccc(C(F)(F)F)cc23)c2ccc(Cl)cc2OC)cc(S(C)(=O)=O)c1` (single isomer, unassigned; (+)), the EC50 (dengue virus type 1; [16]) is reported as 0.4 nM, the EC50 (dengue virus type 3; [17]) is reported as 6 nM and the EC50 (dengue virus type 2) is reported as 0.31 nM. For the same molecule, the microsomal CLint [1] was < 8 µL/min/mg, the “Chromatographic log D at pH 7.4” value [2] was 3.87 and the hepatocyte CLint [3] was < 1.2 µL/min/1e6 cells. The EC50 (dengue virus type 4) was 15 nM.
Work on `COc1cc(NC(C(=O)c2c[nH]c3cc(F)c(C)cc23)c2ccc(Cl)cc2OC)cc(S(C)(=O)=O)c1` (single isomer, unassigned; (+)) yielded an EC50 (dengue virus type 1; [16]) of 0.4 nM, an EC50 (dengue virus type 3; [17]) of 8 nM and an EC50 (dengue virus type 2) of 0.17 nM. The microsomal CLint [1] was < 8 µL/min/mg, the “Chromatographic log D at pH 7.4” value [2] was 3.68 and the hepatocyte CLint [3] was 2.4 µL/min/1e6 cells. For the same molecule, the EC50 (dengue virus type 4) was 44 nM.
In the case of `COc1cc(NC(C(=O)c2c[nH]c3cc(OC)c(C)cc23)c2ccc(Cl)cc2OCCO)cc(S(C)(=O)=O)c1` (single isomer, unassigned; (+)), the hepatocyte CLint [5] is reported as 3.7 µL/min/1e6 cells, the Vd [6] is reported as 7.1 L/kg and the half-life [7] is reported as 4.7 h. The EC50 (dengue virus type 1; [16]) was 2 nM, the AUC [8] was 1200 ng·h/mL and the EC50 (dengue virus type 3; [17]) was 17 nM. The EC50 (dengue virus type 2) was 0.37 nM, the bioavailability [9] was 16% and the “Chromatographic log D at pH 7.4” value [2] was 3.24. The Cmax [10] was 103 ng/mL, the solubility thermodynamic at 24 h [11] was < 1 µg/mL and the hepatocyte CLint [3] was < 1.9 µL/min/1e6 cells. For the same molecule, the clearance [12] was 21 mL/min/kg, the LBF [13] was 31% and the EC50 (dengue virus type 4) was 53 nM.
